Reference: patent US11053204B2, “Pyrimidinyloxy benzene derivatives as herbicides” (FMC Corporation, priority 2015, dated 2021)

Legend:
Assay in all cases: Test C postemergence, plant response rating
Format in all cases: in vivo
corn (Zea mays) = conditions: for Plant response rating, Corn / Corn plant response rating (crop injury, 0 = no effect, 100 = complete kill) at 16 g/ha / Corn plant response rating (crop injury, 0 = no effect, 100 = complete kill) at 31 g/ha: scale 0 to 100; for Corn plant response rating / plant injury at 62 g/ha / plant injury at 125 g/ha: scale 0 to 100 (0 no effect, 100 complete control); for Corn plant response rating (crop injury, 0 = no effect, 100 = complete kill) at 16 g/ha / Corn plant response rating (crop injury, 0 = no effect, 100 = complete kill) at 31 g/ha / plant injury at 62 g/ha / plant injury at 125 g/ha: Zea mays, post-emergence
Excerpt: (§1) Seeds of plant species selected from blackgrass (Alopecurus myosuroides), ryegrass, Italian (Italian ryegrass, Lolium multiflorum), wheat (winter wheat, Triticum aestivum), galium (catchweed bedstraw, Galium aparine), corn (Zea mays), crabgrass, large (large crabgrass, Digitaria sanguinalis), foxtail, giant (giant foxtail, Setaria faberii), johnsongrass (Sorghum halepense), lambsquarters (Chenopodium album), morningglory (Ipomoea coccinea), nutsedge, yellow (yellow nutsedge, Cyperus esculentus), pigweed (Amaranthus retroflexus), ragweed (common ragweed, Ambrosia elatior), soybean (Glycine max), barnyardgrass (Echinochloa crus-galli), oilseed rape (Brassica napus), pigweed, palmer (palmer pigweed, Amaranthus palmeri), waterhemp (common waterhemp, Amaranthus rudis), velvetleaf (Abutilon theophrasti), kochia (Kochia scoparia), surinam grass (Brachiaria decumbens), nightshade (eastern black nightshade, Solanum ptycanthum), wild poinsettia (Euphorbia heterophylla), windgrass (Apera spica-venti), and oat, wild (wild oat Avena fatua), were planted into a blend of loam soil and sand or a silt loam soil and treated preemergence with test chemicals formulated in a non-phytotoxic solvent mixture which included a surfactant.
(§2) At the same time, plants selected from these crop and weed species and also chickweed (common chickweed, Stellaria media), buckwheat, wild (wild buckwheat, Polygonum convolvulus), wild mustard (Sinapis arvensis), field poppy (Papaver rhoeas), field violet (Viola arvensis), geranium, cutleaf (cutleaf geranium, Geranium dissectum), Canada thistle (Cirsium arvense), and speedwell (bird's-eye speedwell, Veronica persica), were planted in pots containing Sunshine Redi-Earth® planting medium comprising spaghnum peat moss, vermiculite, starter nutrients and dolomitic limestone and treated with postemergence applications of test chemicals formulated in the same manner. Plants ranged in height from 2 to 18 cm (1- to 4-leaf stage) for postemergence treatments. Treated plants and controls were maintained in a greenhouse for 13 to 15 d, after which time all species were compared to controls and visually evaluated. Plant response ratings, summarized in Table C, are based on a scale of 0 to 100 where 0 is no effect and 100 is complete control. A dash (-) response means no test result.

[1] = system: crabgrass, large (large crabgrass, Digitaria sanguinalis); conditions: for Plant response rating, Crabgrass, Large / pest or weed control at 16 g/ha / pest or weed control at 31 g/ha: scale 0 to 100; for Crabgrass, Large plant response rating / pest or weed control at 62 g/ha / pest or weed control at 125 g/ha: scale 0 to 100 (0 no effect, 100 complete control); for pest or weed control at 16 g/ha / pest or weed control at 31 g/ha / pest or weed control at 62 g/ha / pest or weed control at 125 g/ha: Digitaria sanguinalis, post-emergence
Excerpt: as §1, §2

[2] = system: foxtail, giant (giant foxtail, Setaria faberii); conditions: for Plant response rating, Foxtail, Giant / pest or weed control at 16 g/ha / pest or weed control at 31 g/ha: scale 0 to 100; for Foxtail, Giant plant response rating / pest or weed control at 62 g/ha / pest or weed control at 125 g/ha: scale 0 to 100 (0 no effect, 100 complete control); for pest or weed control at 16 g/ha / pest or weed control at 31 g/ha / pest or weed control at 62 g/ha / pest or weed control at 125 g/ha: Setaria faberi, post-emergence
Excerpt: as §1, §2

[3] = system: galium (catchweed bedstraw, Galium aparine); conditions: for Plant response rating, Galium / pest or weed control at 16 g/ha / pest or weed control at 31 g/ha: scale 0 to 100; for Galium plant response rating / pest or weed control at 62 g/ha / pest or weed control at 125 g/ha: scale 0 to 100 (0 no effect, 100 complete control); for pest or weed control at 16 g/ha / pest or weed control at 31 g/ha / pest or weed control at 62 g/ha / pest or weed control at 125 g/ha: Galium, post-emergence
Excerpt: as §1, §2

kochia (Kochia scoparia) = conditions: for Plant response rating, Kochia / pest or weed control at 16 g/ha / pest or weed control at 31 g/ha: scale 0 to 100; for Kochia plant response rating / pest or weed control at 62 g/ha / pest or weed control at 125 g/ha: scale 0 to 100 (0 no effect, 100 complete control); for pest or weed control at 16 g/ha / pest or weed control at 31 g/ha / pest or weed control at 62 g/ha / pest or weed control at 125 g/ha: Bassia scoparia, post-emergence
Excerpt: as §1, §2

[4] = system: oilseed rape (Brassica napus); conditions: for Plant response rating, Oilseed Rape / plant injury at 16 g/ha / plant injury at 31 g/ha: scale 0 to 100; for Oilseed Rape plant response rating / plant injury at 62 g/ha / plant injury at 125 g/ha: scale 0 to 100 (0 no effect, 100 complete control); for plant injury at 16 g/ha / plant injury at 31 g/ha / plant injury at 62 g/ha / plant injury at 125 g/ha: Brassica napus, post-emergence
Excerpt: as §1, §2

soybean (Glycine max) = conditions: for Plant response rating, Soybean / plant injury at 16 g/ha / plant injury at 31 g/ha: scale 0 to 100; for Soybean plant response rating / plant injury at 62 g/ha / plant injury at 125 g/ha: scale 0 to 100 (0 no effect, 100 complete control); for plant injury at 16 g/ha / plant injury at 31 g/ha / plant injury at 62 g/ha / plant injury at 125 g/ha: Glycine max, post-emergence
Excerpt: as §1, §2

[5] = system: waterhemp (common waterhemp, Amaranthus rudis); conditions: for Plant response rating, Waterhemp: scale 0 to 100; for Waterhemp plant response rating: scale 0 to 100 (0 no effect, 100 complete control)
Excerpt: as §1, §2

## N#CCCOC(=O)c1c(Br)cccc1Oc1ncc(Cl)cn1 [Compound 7]
Corn (Zea mays); 16 g ai/ha
  Plant response rating, Corn: 5
Corn (Zea mays); 31 g ai/ha
  Plant response rating, Corn: 10
Corn (Zea mays); 62 g ai/ha
  Corn plant response rating: 10
Corn (Zea mays); 125 g ai/ha
  Corn plant response rating: 15
[1]; 16 g ai/ha
  Plant response rating, Crabgrass, Large: 5
[1]; 31 g ai/ha
  Plant response rating, Crabgrass, Large: 5
[1]; 62 g ai/ha
  Crabgrass, Large plant response rating: 20
[1]; 125 g ai/ha
  Crabgrass, Large plant response rating: 15
[2]; 16 g ai/ha
  Plant response rating, Foxtail, Giant: 5
[2]; 31 g ai/ha
  Plant response rating, Foxtail, Giant: 5
[2]; 62 g ai/ha
  Foxtail, Giant plant response rating: 10
[2]; 125 g ai/ha
  Foxtail, Giant plant response rating: 15
[3]; 16 g ai/ha
  Plant response rating, Galium: 0
[3]; 31 g ai/ha
  Plant response rating, Galium: 0
[3]; 62 g ai/ha
  Galium plant response rating: 10
[3]; 125 g ai/ha
  Galium plant response rating: 40
Kochia (Kochia scoparia); 16 g ai/ha
  Plant response rating, Kochia: 0
Kochia (Kochia scoparia); 31 g ai/ha
  Plant response rating, Kochia: 30
Kochia (Kochia scoparia); 62 g ai/ha
  Kochia plant response rating: 25
Kochia (Kochia scoparia); 125 g ai/ha
  Kochia plant response rating: 20
[4]; 16 g ai/ha
  Plant response rating, Oilseed Rape: 0
[4]; 31 g ai/ha
  Plant response rating, Oilseed Rape: 0
[4]; 62 g ai/ha
  Oilseed Rape plant response rating: 0
[4]; 125 g ai/ha
  Oilseed Rape plant response rating: 5
Soybean (Glycine max); 16 g ai/ha
  Plant response rating, Soybean: 25
Soybean (Glycine max); 31 g ai/ha
  Plant response rating, Soybean: 25
Soybean (Glycine max); 62 g ai/ha
  Soybean plant response rating: 40
Soybean (Glycine max); 125 g ai/ha
  Soybean plant response rating: 70
[5]; 16 g ai/ha
  Plant response rating, Waterhemp: 35
[5]; 31 g ai/ha
  Plant response rating, Waterhemp: 70
[5]; 62 g ai/ha
  Waterhemp plant response rating: 60
[5]; 125 g ai/ha
  Waterhemp plant response rating: 65

## C=CCOC(=O)c1c(Br)cccc1Oc1ncc(Cl)cn1 [Compound 22, 2-propen-1-yl 2-bromo-6-[(5-chloro-2-pyrimidinyl)oxy]benzoate]
Corn (Zea mays); 16 g ai/ha
  Corn plant response rating (crop injury, 0 = no effect, 100 = complete kill) at 16 g/ha: 5%
Corn (Zea mays); 31 g ai/ha
  Corn plant response rating (crop injury, 0 = no effect, 100 = complete kill) at 31 g/ha: 5%
Corn (Zea mays); 62 g ai/ha
  plant injury at 62 g/ha: 5%
Corn (Zea mays); 125 g ai/ha
  plant injury at 125 g/ha: 15%
[1]; 16 g ai/ha
  pest or weed control at 16 g/ha: 10%
[1]; 31 g ai/ha
  pest or weed control at 31 g/ha: 15%
[1]; 62 g ai/ha
  pest or weed control at 62 g/ha: 25%
[1]; 125 g ai/ha
  pest or weed control at 125 g/ha: 25%
[2]; 16 g ai/ha
  pest or weed control at 16 g/ha: 10%
[2]; 31 g ai/ha
  pest or weed control at 31 g/ha: 10%
[2]; 62 g ai/ha
  pest or weed control at 62 g/ha: 15%
[2]; 125 g ai/ha
  pest or weed control at 125 g/ha: 25%
[3]; 16 g ai/ha
  pest or weed control at 16 g/ha: 10%
[3]; 31 g ai/ha
  pest or weed control at 31 g/ha: 25%
[3]; 62 g ai/ha
  pest or weed control at 62 g/ha: 60%
[3]; 125 g ai/ha
  pest or weed control at 125 g/ha: 70%
Kochia (Kochia scoparia); 16 g ai/ha
  pest or weed control at 16 g/ha: 50%
Kochia (Kochia scoparia); 31 g ai/ha
  pest or weed control at 31 g/ha: 80%
Kochia (Kochia scoparia); 62 g ai/ha
  pest or weed control at 62 g/ha: 85%
Kochia (Kochia scoparia); 125 g ai/ha
  pest or weed control at 125 g/ha: 50%
[4]; 16 g ai/ha
  plant injury at 16 g/ha: 35%
[4]; 31 g ai/ha
  plant injury at 31 g/ha: 40%
[4]; 62 g ai/ha
  plant injury at 62 g/ha: 55%
[4]; 125 g ai/ha
  plant injury at 125 g/ha: 80%
Soybean (Glycine max); 16 g ai/ha
  plant injury at 16 g/ha: 40%
Soybean (Glycine max); 31 g ai/ha
  plant injury at 31 g/ha: 40%
Soybean (Glycine max); 62 g ai/ha
  plant injury at 62 g/ha: 35%
Soybean (Glycine max); 125 g ai/ha
  plant injury at 125 g/ha: 75%
[5]; 16 g ai/ha
  Plant response rating, Waterhemp: 75
[5]; 31 g ai/ha
  Plant response rating, Waterhemp: 75
[5]; 62 g ai/ha
  Waterhemp plant response rating: 85
[5]; 125 g ai/ha
  Waterhemp plant response rating: 80

## O=C(OCC(F)(F)C(F)(F)F)c1c(Br)cccc1Oc1ncc(Cl)cn1 [Compound 23, 2,2,3,3,3-pentafluoropropyl 2-bromo-6-[(5-chloro-2-pyrimidinyl)oxy]benzoate]
Corn (Zea mays); 16 g ai/ha
  Corn plant response rating (crop injury, 0 = no effect, 100 = complete kill) at 16 g/ha: 5%
Corn (Zea mays); 31 g ai/ha
  Corn plant response rating (crop injury, 0 = no effect, 100 = complete kill) at 31 g/ha: 5%
Corn (Zea mays); 62 g ai/ha
  plant injury at 62 g/ha: 5%
Corn (Zea mays); 125 g ai/ha
  plant injury at 125 g/ha: 10%
[1]; 16 g ai/ha
  pest or weed control at 16 g/ha: 10%
[1]; 31 g ai/ha
  pest or weed control at 31 g/ha: 10%
[1]; 62 g ai/ha
  pest or weed control at 62 g/ha: 20%
[1]; 125 g ai/ha
  pest or weed control at 125 g/ha: 25%
[2]; 16 g ai/ha
  pest or weed control at 16 g/ha: 10%
[2]; 31 g ai/ha
  pest or weed control at 31 g/ha: 35%
[2]; 62 g ai/ha
  pest or weed control at 62 g/ha: 25%
[2]; 125 g ai/ha
  pest or weed control at 125 g/ha: 30%
[3]; 16 g ai/ha
  pest or weed control at 16 g/ha: 50%
[3]; 31 g ai/ha
  pest or weed control at 31 g/ha: 55%
[3]; 62 g ai/ha
  pest or weed control at 62 g/ha: 55%
[3]; 125 g ai/ha
  pest or weed control at 125 g/ha: 80%
Kochia (Kochia scoparia); 16 g ai/ha
  pest or weed control at 16 g/ha: 5%
Kochia (Kochia scoparia); 31 g ai/ha
  pest or weed control at 31 g/ha: 50%
Kochia (Kochia scoparia); 62 g ai/ha
  pest or weed control at 62 g/ha: 55%
Kochia (Kochia scoparia); 125 g ai/ha
  pest or weed control at 125 g/ha: 85%
[4]; 16 g ai/ha
  plant injury at 16 g/ha: 5%
[4]; 31 g ai/ha
  plant injury at 31 g/ha: 5%
[4]; 62 g ai/ha
  plant injury at 62 g/ha: 50%
[4]; 125 g ai/ha
  plant injury at 125 g/ha: 35%
Soybean (Glycine max); 16 g ai/ha
  plant injury at 16 g/ha: 20%
Soybean (Glycine max); 31 g ai/ha
  plant injury at 31 g/ha: 30%
Soybean (Glycine max); 62 g ai/ha
  plant injury at 62 g/ha: 70%
Soybean (Glycine max); 125 g ai/ha
  plant injury at 125 g/ha: 35%
[5]; 16 g ai/ha
  Plant response rating, Waterhemp: 80
[5]; 31 g ai/ha
  Plant response rating, Waterhemp: 90
[5]; 62 g ai/ha
  Waterhemp plant response rating: 85
[5]; 125 g ai/ha
  Waterhemp plant response rating: 95
